Data reported in US9254292B2, “Fused tetracycle derivatives and methods of use thereof for the treatment of viral diseases” (Merck Sharp & Dohme Corp., priority 2010, dated 2016).

Key:
HCV replicon 1a WT = assay: Cell-based HCV replicon assay, genotype 1a WT; design: species or system Hepatitis C virus; conditions: replicon cells, day 3, replicon RNA by real time PCR (Taqman)
Method: (§1) To measure cell-based anti-HCV activity of selected compounds of the present invention, replicon cells were seeded at 5000 cells/well in 96-well collagen I-coated Nunc plates in the presence of the test compound. Various concentrations of test compound, typically in 10 serial 2-fold dilutions, were added to the assay mixture, with the starting concentration ranging from 250 μM to 1 μM. The final concentration of DMSO was 0.5%, fetal bovine serum was 5%, in the assay media. Cells were harvested on day 3 by the addition of 1× cell lysis buffer (Ambion cat #8721). The replicon RNA level was measured using real time PCR (Taqman assay). The amplicon was located in 5B. The PCR primers were: 5B.2F, ATGGACAGGCGCCCTGA (SEQ ID NO. 1); 5B.2R, […] (SEQ ID NO. 2); the probe sequence was FAM-labeled CACGCCATGCGCTGCGG (SEQ ID NO. 3). GAPDH RNA was used as endogenous control and was amplified in the same reaction as NS5B (multiplex PCR) using primers and VIC-labeled probe recommended by the manufacturer (PE Applied Biosystem). The real-time RT-PCR reactions were run on ABI PRISM 7900HT Sequence Detection System using the following program: 48° C. for 30 minutes, 95° C. for 10 minutes, 40 cycles of 95° C. for 15 sec, 60° C. for 1 minutes The ΔCT values (CT5B-CTGAPDH) were plotted against the concentration of test compound and fitted to the sigmoid dose-response model using XLfit4 (MDL). EC50 was defined as the concentration of inhibitor necessary to achieve ΔCT=1 over the projected baseline; EC90 the concentration necessary to achieve ΔCT=3.2 over the baseline. Alternatively, to quantitate the absolute amount of replicon RNA, a standard curve was established by including serially diluted T7 transcripts of replicon RNA in the Taqman assay. All Taqman reagents were from PE Applied Biosystems. Such an assay procedure was described in detail in e.g. Malcolm et al., Antimicrobial Agents and Chemotherapy 50: 1013-1020 (2006).
(§2) HCV replicon assay data was calculated for selected compounds of the present invention using this method and is provided in the table below.

HCV replicon 1a Y93H = assay: Cell-based HCV replicon assay, genotype 1a Y93H mutant; conditions: Hepatitis C virus, 72 h, read-out: Replicon EC50 1a Y93H
Method: To measure cell-based anti-HCV activity of selected compounds of the present invention, replicon cells were seeded at 5000 cells/well in 96-well collagen I-coated Nunc plates in the presence of the test compound. Various concentrations of test compound, typically in 10 serial 2-fold dilutions, were added to the assay mixture, with the starting concentration ranging from 250 μM to 1 μM. The final concentration of DMSO was 0.5%, fetal bovine serum was 5%, in the assay media. Cells were harvested on day 3 by the addition of 1× cell lysis buffer (Ambion cat #8721). The replicon RNA level was measured using real time PCR (Taqman assay). The amplicon was located in 5B. The PCR primers were: 5B.2F, ATGGACAGGCGCCCTGA (SEQ ID NO. 1); 5B.2R, […] (SEQ ID NO. 2); the probe sequence was FAM-labeled CACGCCATGCGCTGCGG (SEQ ID NO. 3). GAPDH RNA was used as endogenous control and was amplified in the same reaction as NS5B (multiplex PCR) using primers and VIC-labeled probe recommended by the manufacturer (PE Applied Biosystem). […] Alternatively, to quantitate the absolute amount of replicon RNA, a standard curve was established by including serially diluted T7 transcripts of replicon RNA in the Taqman assay. […]
as §2

HCV replicon 1b WT = assay: Cell-based HCV replicon assay, genotype 1b WT; design: species or system Hepatitis C virus; conditions: replicon cells, day 3, replicon RNA by real time PCR (Taqman)
Method: as §1, §2

With COC(=O)N[C@H](C(=O)N1CCC[C@H]1c1ncc(-c2ccc3c(c2)OCCc2c-3oc3ccc(-c4cnc([C@@H]5CCCN5C(=O)[C@@H](NC(=O)OC)C(C)C)[nH]4)cc23)[nH]1)C(C)C [Compound 5] the EC50 (HCV replicon 1a WT; Hepatitis C virus, 72 h) was 15 pM, the EC50 (HCV replicon 1a Y93H) was 186000 pM and the EC50 (HCV replicon 1b WT; Hepatitis C virus, 72 h) was 1 pM.

In the case of COC(=O)NC(C(=O)N1CCC[C@H]1c1ncc(-c2ccc3c(c2)cc2n3CCOc3cc(-c4cnc(C5CCCN5C(=O)[C@@H](NC(=O)OC)C(C)C)[nH]4)ccc3-2)[nH]1)C(C)C (some centres unmarked) [Compound 7], the EC50 (HCV replicon 1a WT; Hepatitis C virus, 72 h) is reported as 10 pM, the EC50 (HCV replicon 1a Y93H) is reported as 565000 pM and the EC50 (HCV replicon 1b WT; Hepatitis C virus, 72 h) is reported as 3 pM.

In the case of COC(=O)NC(C(=O)N1CCC[C@H]1c1ncc(-c2ccc3c(c2)c(F)c2n3CCOc3cc(-c4cnc(C5CCCN5C(=O)[C@@H](NC(=O)OC)C(C)C)[nH]4)ccc3-2)[nH]1)C(C)C (some centres unmarked) [Compound 8], the EC50 (HCV replicon 1a WT) is reported as 16 pM and the EC50 (HCV replicon 1b WT) is reported as 7 pM.

Work on COC(=O)NC(C(=O)N1CCC[C@H]1c1ncc(-c2ccc3c(c2)c(F)c2n3CCOc3cc(-c4cnc(C5CCCN5C(=O)[C@@H](NC(=O)OC)C(C)C)[nH]4)ccc3-2)[nH]1)C(C)C (some centres unmarked) [Compound 9] yielded an EC50 (HCV replicon 1a WT) of 1180 pM and an EC50 (HCV replicon 1b WT) of 270 pM.

In the case of COC(=O)NC(C(=O)N1CCC[C@@H]1c1ncc(-c2ccc3c(c2)c(F)c2n3CCOc3cc(-c4cnc(C5CCCN5C(=O)[C@@H](NC(=O)OC)C(C)C)[nH]4)ccc3-2)[nH]1)C(C)C (some centres unmarked) [Compound 10], the EC50 (HCV replicon 1a WT) is reported as 2000 pM and the EC50 (HCV replicon 1b WT) is reported as 700 pM.

COC(=O)NC(C(=O)N1CCC[C@@H]1c1ncc(-c2ccc3c(c2)c(F)c2n3CCOc3cc(-c4cnc(C5CCCN5C(=O)[C@@H](NC(=O)OC)C(C)C)[nH]4)ccc3-2)[nH]1)C(C)C (some centres unmarked) [Compound 11] showed an EC50 (HCV replicon 1a WT) of 10 pM and an EC50 (HCV replicon 1b WT) of 5 pM.
